The record followed here is ChEMBL document CHEMBL2429832, “N-substituted 8-aminopentacyclo[5.4.0.0(2,6).0(3,10).0(5,9)]undecanes as σ receptor ligands with potential neuroprotective effects” (Bioorg Med Chem, 2013).

pKi: −log10 of the molar value.

Experiment [1] concerns the target 5-hydroxytryptamine receptor 7 (Homo sapiens, UniProt P34969). Briefly: Inhibition of 5-HT7 receptor (unknown origin) at 10 uM by PDSP assay relative to control.
Experiment [2] deals with 5-hydroxytryptamine receptor 1E (Homo sapiens) (UniProt P28566). In words: Inhibition of 5-HT1E receptor (unknown origin) at 10 uM by PDSP assay relative to control.
5-hydroxytryptamine receptor 1E (Homo sapiens), sequence (P28566 whole entry): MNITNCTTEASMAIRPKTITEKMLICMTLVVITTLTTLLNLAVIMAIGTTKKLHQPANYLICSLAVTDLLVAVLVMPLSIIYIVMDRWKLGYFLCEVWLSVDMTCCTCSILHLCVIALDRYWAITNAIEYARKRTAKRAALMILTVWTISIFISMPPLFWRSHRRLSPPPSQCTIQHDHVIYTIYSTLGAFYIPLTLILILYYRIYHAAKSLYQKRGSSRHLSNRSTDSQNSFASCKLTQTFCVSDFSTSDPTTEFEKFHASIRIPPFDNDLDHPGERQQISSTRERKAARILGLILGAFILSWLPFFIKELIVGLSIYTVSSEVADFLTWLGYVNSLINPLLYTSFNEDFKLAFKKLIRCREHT
Experiment [3] deals with Beta-3 adrenergic receptor (Homo sapiens) (UniProt P13945). In words: Inhibition of adrenergic beta3 receptor (unknown origin) at 10 uM by PDSP assay relative to control.
Beta-3 adrenergic receptor (Homo sapiens), sequence (P13945 whole entry, looked up): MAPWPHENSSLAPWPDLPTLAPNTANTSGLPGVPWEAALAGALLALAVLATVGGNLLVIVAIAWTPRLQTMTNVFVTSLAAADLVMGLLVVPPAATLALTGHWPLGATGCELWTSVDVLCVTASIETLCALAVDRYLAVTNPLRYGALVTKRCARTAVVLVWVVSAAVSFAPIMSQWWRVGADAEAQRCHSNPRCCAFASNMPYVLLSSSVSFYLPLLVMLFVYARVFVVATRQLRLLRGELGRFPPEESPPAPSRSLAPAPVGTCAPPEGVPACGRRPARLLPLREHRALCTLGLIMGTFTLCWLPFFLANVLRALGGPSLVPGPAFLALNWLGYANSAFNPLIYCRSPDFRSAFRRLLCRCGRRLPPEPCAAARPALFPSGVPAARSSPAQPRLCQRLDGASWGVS
The target in experiment [4] is Sigma non-opioid intracellular receptor 1 (Rattus norvegicus, UniProt Q9R0C9). In words: Displacement of [3H](+)-pentazocine from sigma-1 receptor in rat brain homogenates. The format is tissue-based. A general note: In a radioligand displacement assay an active substance lowers the binding of a labelled ligand.
The target in experiment [5] is D(1A) dopamine receptor (Homo sapiens) (UniProt P21728). Briefly: Inhibition of dopamine D1 receptor (unknown origin) at 10 uM by PDSP assay relative to control.
D(1A) dopamine receptor (Homo sapiens), sequence (P21728 whole entry): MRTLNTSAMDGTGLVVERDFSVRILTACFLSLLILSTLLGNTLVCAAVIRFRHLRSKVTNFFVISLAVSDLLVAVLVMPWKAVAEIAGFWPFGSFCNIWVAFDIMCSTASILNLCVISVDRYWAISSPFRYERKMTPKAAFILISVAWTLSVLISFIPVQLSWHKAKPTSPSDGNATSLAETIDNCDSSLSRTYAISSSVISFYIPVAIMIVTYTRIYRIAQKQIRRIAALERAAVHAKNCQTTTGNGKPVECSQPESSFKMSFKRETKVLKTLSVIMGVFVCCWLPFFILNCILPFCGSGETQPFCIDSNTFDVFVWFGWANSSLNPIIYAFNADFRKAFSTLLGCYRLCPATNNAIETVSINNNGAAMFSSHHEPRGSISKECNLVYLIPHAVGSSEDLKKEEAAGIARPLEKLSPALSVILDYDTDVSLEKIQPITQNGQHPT
Experiment [6] addresses 5-hydroxytryptamine receptor 6 (Homo sapiens, UniProt P50406). In words: Inhibition of 5-HT6 receptor (unknown origin) at 10 uM by PDSP assay relative to control.
In experiment [7] the target is 5-hydroxytryptamine receptor 1B (Homo sapiens, UniProt P28222). Briefly: Inhibition of 5-HT1B receptor (unknown origin) at 10 uM by PDSP assay relative to control.
5-hydroxytryptamine receptor 1B, sequence (P28222 whole entry): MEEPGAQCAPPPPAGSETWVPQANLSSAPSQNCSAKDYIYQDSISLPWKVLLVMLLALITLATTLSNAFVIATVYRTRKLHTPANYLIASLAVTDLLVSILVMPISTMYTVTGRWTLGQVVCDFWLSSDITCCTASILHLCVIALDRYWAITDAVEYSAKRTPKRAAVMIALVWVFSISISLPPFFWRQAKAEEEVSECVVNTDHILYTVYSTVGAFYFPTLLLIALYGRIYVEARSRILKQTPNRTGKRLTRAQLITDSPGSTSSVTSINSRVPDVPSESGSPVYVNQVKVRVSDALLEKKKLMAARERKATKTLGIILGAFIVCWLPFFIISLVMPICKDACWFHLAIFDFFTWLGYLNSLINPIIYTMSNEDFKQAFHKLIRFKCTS
For experiment [8], the target named is T1, 5-hydroxytryptamine receptor 3A (Homo sapiens) (UniProt P46098).
T1 sequence (whole entry): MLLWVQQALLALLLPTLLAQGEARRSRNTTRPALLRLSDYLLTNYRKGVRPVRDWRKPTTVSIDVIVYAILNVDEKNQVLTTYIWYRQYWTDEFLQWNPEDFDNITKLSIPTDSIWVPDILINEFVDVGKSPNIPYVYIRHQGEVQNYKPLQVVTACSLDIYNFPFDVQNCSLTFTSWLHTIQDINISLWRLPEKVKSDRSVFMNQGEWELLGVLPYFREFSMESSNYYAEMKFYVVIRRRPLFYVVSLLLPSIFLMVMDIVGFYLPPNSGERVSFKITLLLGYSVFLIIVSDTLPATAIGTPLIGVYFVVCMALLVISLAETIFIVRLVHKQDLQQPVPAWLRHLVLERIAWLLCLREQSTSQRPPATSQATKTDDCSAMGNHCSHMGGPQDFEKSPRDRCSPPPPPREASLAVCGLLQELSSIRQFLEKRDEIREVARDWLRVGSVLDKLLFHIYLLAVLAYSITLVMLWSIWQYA
Briefly: Inhibition of 5-HT3 receptor (unknown origin) at 10 uM by PDSP assay relative to control.

In experiment [9] the target is T2, 5-hydroxytryptamine receptor 2C (Homo sapiens) (UniProt P28335).
T2 sequence (whole entry): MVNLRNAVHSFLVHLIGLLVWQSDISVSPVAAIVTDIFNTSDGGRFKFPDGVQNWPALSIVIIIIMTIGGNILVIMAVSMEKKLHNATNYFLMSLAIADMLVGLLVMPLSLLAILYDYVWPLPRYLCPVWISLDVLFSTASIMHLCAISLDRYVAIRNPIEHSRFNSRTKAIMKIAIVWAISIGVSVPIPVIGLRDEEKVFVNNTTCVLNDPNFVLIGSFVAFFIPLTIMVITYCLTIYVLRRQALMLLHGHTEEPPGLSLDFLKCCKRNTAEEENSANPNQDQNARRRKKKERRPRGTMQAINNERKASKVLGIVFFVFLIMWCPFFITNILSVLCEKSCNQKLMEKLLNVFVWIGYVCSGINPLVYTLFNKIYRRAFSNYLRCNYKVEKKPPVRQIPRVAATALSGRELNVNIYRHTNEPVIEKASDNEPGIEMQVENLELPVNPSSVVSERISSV
In words: Inhibition of 5-HT2C receptor (unknown origin) at 10 uM by PDSP assay relative to control.

Experiment [10] deals with T3, D(4) dopamine receptor (Homo sapiens) (UniProt P21917).
T3 sequence (whole entry): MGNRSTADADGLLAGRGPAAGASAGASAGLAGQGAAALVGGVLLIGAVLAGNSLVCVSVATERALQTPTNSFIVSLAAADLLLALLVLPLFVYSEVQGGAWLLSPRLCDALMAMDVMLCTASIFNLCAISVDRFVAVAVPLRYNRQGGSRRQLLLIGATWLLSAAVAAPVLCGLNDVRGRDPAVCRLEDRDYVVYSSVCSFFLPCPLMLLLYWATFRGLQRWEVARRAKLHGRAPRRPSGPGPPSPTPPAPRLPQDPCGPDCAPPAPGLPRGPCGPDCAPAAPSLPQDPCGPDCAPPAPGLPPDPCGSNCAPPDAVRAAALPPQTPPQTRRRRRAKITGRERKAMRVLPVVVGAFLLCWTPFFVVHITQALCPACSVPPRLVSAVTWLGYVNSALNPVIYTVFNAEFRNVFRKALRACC
In words: Inhibition of dopamine D4 receptor (unknown origin) at 10 uM by PDSP assay relative to control.

Experiment [11] concerns the target 5-hydroxytryptamine receptor 2B (Homo sapiens, UniProt P41595). In words: Inhibition of 5-HT2B receptor (unknown origin) at 10 uM by PDSP assay relative to control.
The next experiment has as its target Histamine H4 receptor (Homo sapiens, UniProt Q9H3N8). In words: Inhibition of histamine H4 receptor (unknown origin) at 10 uM by PDSP assay relative to control.
Experiment [12] concerns the target Sodium-dependent noradrenaline transporter (Homo sapiens, UniProt P23975). In words: Displacement of [3H]-nisoxetine from human NET expressed in HEK cell membranes at 10 uM relative to control. Conditions: HEK293.
The next experiment concerns the target Histamine H3 receptor (Homo sapiens, UniProt Q9Y5N1). In words: Inhibition of histamine H3 receptor (unknown origin) at 10 uM by PDSP assay relative to control.
For experiment [13], the target named is 5-hydroxytryptamine receptor 5A (Homo sapiens, UniProt P47898). Briefly: Inhibition of 5-HT5A receptor (unknown origin) at 10 uM by PDSP assay relative to control.
5-hydroxytryptamine receptor 5A, sequence (P47898 whole entry): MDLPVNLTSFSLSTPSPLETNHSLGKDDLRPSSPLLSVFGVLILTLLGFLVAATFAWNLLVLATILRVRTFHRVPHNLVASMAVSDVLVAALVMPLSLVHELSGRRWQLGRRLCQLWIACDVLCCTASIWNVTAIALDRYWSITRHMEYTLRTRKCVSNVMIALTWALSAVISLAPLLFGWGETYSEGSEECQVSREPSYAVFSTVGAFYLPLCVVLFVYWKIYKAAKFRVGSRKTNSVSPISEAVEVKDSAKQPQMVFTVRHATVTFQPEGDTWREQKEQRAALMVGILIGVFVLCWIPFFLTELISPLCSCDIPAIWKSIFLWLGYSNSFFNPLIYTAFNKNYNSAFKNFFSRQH

5-hydroxytryptamine receptor 2B, sequence (P41595 whole entry): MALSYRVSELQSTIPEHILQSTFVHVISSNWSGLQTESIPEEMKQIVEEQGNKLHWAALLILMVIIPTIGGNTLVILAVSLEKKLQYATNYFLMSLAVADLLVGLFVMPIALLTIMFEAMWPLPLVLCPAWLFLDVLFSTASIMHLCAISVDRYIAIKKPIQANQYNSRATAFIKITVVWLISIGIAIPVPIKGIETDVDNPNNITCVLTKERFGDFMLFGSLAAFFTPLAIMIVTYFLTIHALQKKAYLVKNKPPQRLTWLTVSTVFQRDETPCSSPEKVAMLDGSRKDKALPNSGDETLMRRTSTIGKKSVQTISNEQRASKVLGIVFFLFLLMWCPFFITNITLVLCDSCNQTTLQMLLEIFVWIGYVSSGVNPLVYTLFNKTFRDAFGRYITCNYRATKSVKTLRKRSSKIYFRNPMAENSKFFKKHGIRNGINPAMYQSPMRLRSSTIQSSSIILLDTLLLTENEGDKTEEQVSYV
Sodium-dependent noradrenaline transporter, sequence (P23975 whole entry): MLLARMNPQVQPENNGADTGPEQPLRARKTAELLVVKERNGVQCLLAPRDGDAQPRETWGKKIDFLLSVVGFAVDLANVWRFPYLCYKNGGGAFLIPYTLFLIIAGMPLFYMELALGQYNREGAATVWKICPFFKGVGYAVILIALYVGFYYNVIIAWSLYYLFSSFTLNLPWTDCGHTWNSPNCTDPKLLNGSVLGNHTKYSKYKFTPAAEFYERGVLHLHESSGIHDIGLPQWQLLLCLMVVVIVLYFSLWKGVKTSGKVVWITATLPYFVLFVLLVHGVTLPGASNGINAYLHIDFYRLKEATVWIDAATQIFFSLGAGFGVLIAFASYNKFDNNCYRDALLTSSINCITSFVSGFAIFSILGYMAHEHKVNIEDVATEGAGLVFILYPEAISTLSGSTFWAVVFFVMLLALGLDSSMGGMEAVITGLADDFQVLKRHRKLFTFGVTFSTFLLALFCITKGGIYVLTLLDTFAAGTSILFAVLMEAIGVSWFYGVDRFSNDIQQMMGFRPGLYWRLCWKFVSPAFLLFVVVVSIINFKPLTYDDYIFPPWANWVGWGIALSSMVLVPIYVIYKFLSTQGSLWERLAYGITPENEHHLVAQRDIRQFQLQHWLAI
5-hydroxytryptamine receptor 6, sequence (P50406 whole entry): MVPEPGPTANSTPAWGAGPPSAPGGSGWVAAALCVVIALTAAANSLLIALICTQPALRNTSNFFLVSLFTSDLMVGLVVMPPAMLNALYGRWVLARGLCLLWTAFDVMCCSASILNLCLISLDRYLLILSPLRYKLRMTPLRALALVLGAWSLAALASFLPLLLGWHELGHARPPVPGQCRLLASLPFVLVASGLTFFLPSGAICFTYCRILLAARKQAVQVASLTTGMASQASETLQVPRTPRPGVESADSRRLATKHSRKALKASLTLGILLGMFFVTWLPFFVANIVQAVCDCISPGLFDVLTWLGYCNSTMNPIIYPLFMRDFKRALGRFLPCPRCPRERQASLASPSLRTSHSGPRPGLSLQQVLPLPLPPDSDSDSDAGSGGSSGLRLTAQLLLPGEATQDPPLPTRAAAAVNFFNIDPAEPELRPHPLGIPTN
Histamine H3 receptor, sequence (Q9Y5N1 whole entry): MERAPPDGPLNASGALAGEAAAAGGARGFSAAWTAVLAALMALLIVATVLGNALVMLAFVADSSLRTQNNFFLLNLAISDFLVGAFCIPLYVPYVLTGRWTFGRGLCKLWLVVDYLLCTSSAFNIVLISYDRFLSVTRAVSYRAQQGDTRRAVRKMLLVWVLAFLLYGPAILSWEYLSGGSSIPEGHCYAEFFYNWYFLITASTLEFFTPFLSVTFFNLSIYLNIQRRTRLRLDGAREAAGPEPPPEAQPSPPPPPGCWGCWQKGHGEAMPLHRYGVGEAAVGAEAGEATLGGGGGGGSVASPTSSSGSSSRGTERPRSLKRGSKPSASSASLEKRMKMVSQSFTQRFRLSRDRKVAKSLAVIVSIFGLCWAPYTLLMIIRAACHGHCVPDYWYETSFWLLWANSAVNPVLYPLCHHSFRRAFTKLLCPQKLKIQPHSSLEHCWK
5-hydroxytryptamine receptor 7, sequence (P34969 whole entry): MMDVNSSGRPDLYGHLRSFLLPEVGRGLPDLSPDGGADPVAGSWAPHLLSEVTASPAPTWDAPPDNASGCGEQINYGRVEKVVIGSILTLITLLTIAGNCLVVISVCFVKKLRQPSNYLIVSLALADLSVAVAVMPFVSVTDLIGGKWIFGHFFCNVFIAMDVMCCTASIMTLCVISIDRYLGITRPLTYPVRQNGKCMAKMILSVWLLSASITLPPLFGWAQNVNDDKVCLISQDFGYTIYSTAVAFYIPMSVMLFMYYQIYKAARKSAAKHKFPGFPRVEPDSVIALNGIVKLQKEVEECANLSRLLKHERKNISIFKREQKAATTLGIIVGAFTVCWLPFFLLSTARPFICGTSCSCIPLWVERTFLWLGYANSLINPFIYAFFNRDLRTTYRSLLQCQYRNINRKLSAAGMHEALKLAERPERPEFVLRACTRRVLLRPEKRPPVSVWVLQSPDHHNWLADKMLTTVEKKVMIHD
Histamine H4 receptor, sequence (Q9H3N8 whole entry): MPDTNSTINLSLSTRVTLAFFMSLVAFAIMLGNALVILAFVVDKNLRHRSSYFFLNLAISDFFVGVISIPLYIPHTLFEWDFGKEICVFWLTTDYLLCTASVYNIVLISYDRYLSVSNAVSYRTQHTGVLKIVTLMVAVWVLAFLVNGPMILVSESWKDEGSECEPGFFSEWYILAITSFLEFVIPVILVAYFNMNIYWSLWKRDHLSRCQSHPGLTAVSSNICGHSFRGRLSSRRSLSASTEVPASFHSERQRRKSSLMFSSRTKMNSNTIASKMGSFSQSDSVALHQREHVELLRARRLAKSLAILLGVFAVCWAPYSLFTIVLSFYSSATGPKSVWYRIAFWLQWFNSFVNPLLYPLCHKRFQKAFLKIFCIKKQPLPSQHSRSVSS

By inhibition is commonly meant the share of the control response that was lost under treatment. Read a low inhibition as a response near the control. Usually pKi stands for the negative decadic logarithm of the Ki, by convention in mol/L. For `CN(Cc1cccnc1)[C@H]1C2C3CC4C5C3CC2C5C41` (stereo not given in full), the inhibition in experiment [1], in [2], in [3], in experiment [5], in experiment [6] and in experiment [7] was < 50% in each case. Besides, the inhibition (in experiment [8]; in [9]; in experiment [10]; in experiment [11]; against Histamine H4 receptor; in [12]) was < 50% each time. In addition, the inhibition (against Histamine H3 receptor; in experiment [13]) was < 50% each time. Besides, in experiment [4], the negative logarithm of the Ki (pKi) is 6.01.
As to `CN(Cc1ccc2c(c1)OCO2)[C@H]1C2C3CC4C5C3CC2C5C41` (stereo not given in full), the inhibition in experiment [1], in [2], in experiment [3], in experiment [5], in [6] and in [7] was < 50% throughout. For the same molecule, the inhibition (in experiment [8]; in [9]; in experiment [10]; in experiment [11]; against Histamine H4 receptor; in experiment [12]) was < 50% in each case. The inhibition (against Histamine H3 receptor; in experiment [13]) was < 50% in each case. The molecule further had a pKi in experiment [4] of 6.68.
Consider `CN(CC1CCCCC1)[C@H]1C2C3CC4C5C3CC2C5C41` (stereo not given in full), for which the inhibition in experiment [1], in experiment [2], in experiment [3], in experiment [5], in experiment [6] and in [7] was < 50% in each case. The inhibition (in experiment [8]; in experiment [9]; in [10]; in experiment [11]; at Histamine H4 receptor; in [12]) was < 50% throughout. Also, the inhibition (against Histamine H3 receptor; in [13]) was < 50% throughout. This molecule also had a negative-log Ki (pKi) in experiment [4] of 7.82.
In the case of `CN(Cc1cccc(F)c1)[C@H]1C2C3CC4C2C(=O)C2C4C3C21` (stereo not given in full), the inhibition in experiment [1], in experiment [2], in [3], in [5], in [6] and in experiment [7] was < 50% in each case. Besides, the inhibition (in experiment [8]; in experiment [9]; in [10]; in experiment [11]; against Histamine H4 receptor; in experiment [12]) was < 50% in each case. In addition, the inhibition (against Histamine H3 receptor; in experiment [13]) was < 50% throughout. This molecule gave a pKi in experiment [4] of 6.52.
`CN(Cc1cccnc1)[C@H]1C2C3CC4C2C(=O)C2C4C3C21` (stereo not given in full): the inhibition in experiment [1], in experiment [2], in experiment [3], in [5], in experiment [6] and in experiment [7] was < 50% throughout. The inhibition (in [8]; in experiment [9]; in experiment [10]; in experiment [11]; against Histamine H4 receptor; in [12]) was < 50% throughout. In addition, the inhibition (against Histamine H3 receptor; in experiment [13]) was < 50% throughout. Also, the pKi in [4] is 6.13.
`CN(CCc1ccccc1)[C@H]1C2C3CC4C2C(=O)C2C4C3C21` (stereo not given in full): the inhibition in experiment [1], in experiment [2], in [3], in experiment [5], in experiment [6] and in experiment [7] was < 50% throughout. The inhibition (in experiment [8]; in experiment [9]; in [10]; in [11]; against Histamine H4 receptor; in [12]) was < 50% each time. Besides, the inhibition (at Histamine H3 receptor; in experiment [13]) was < 50% each time. The pKi in experiment [4] was 6.08.
For `c1ccc(CN[C@H]2C3C4CC5C6C4CC3C6C52)cc1` (stereo not given in full), the inhibition in [1], in experiment [2], in experiment [3], in [5], in experiment [6] and in [7] was < 50% throughout. Also, the inhibition (in experiment [8]; in [9]; in experiment [10]; in experiment [11]; at Histamine H4 receptor; in experiment [12]) was < 50% in each case. The inhibition (on Histamine H3 receptor; in experiment [13]) was < 50% each time. For the same molecule, in experiment [4], the pKi was 7.11.
As to `CN(CCc1cccc(F)c1)[C@H]1C2C3CC4C2C(=O)C2C4C3C21` (stereo not given in full), the inhibition in [1], in experiment [2], in experiment [3], in experiment [5], in experiment [6] and in [7] was < 50% each time. The inhibition (in experiment [8]; in [9]; in experiment [10]; in experiment [11]; at Histamine H4 receptor; in experiment [12]) was < 50% each time. The inhibition (against Histamine H3 receptor; in [13]) was < 50% each time. In experiment [4], this molecule gave a negative-log Ki (pKi) of 6.39.
Turning to `COc1ccc(CN(C)[C@H]2C3C4CC5C3C(=O)C3C5C4C32)cc1OC` (stereo not given in full), the inhibition in experiment [1], in experiment [2], in [3], in experiment [5], in experiment [6] and in experiment [7] was < 50% in each case. Moreover, the inhibition (in [8]; in experiment [9]; in experiment [10]; in experiment [11]; against Histamine H4 receptor; in experiment [12]) was < 50% throughout. The inhibition (at Histamine H3 receptor; in [13]) was < 50% throughout. The pKi in experiment [4] was 5.99.
